Series [1] has as its system BDNF. The experiment in a line: BDNF production/secretion promoting activity in cultured Schwann cells (enzyme immunoassay of culture fluid). Format: cell-based, SD rats. Particulars: 24 hours, concentrations of 10^−4 M to 10^−8 M, result in words.
The test system of series [2] is NGF. Put plainly: NGF production/secretion promoting activity in cultured Schwann cells (enzyme immunoassay of culture fluid). The settings on record: 24 hours, concentrations of 10^−4 M to 10^−8 M, result in words. Type of series: cell-based, SD rats. The procedure:
Schwann cells were prepared by subjecting the dorsal spinal root ganglion collected from 10 newborn SD rats to enzyme treatment using 0.25% trypsin containing 0.01% deoxyribonuclease (DNase, produced by Sigma), followed by cloning from the cell group obtained. […]
The culture fluid obtained in each run of Reference Example 1A was recovered and assayed for the neurotrophin content therein. […] After washing, 30 μl of 4-methylumbelliferyl-β-D-galactoside (produced by Sigma) (10 μg/μl) was added to the substrate, the reaction was allowed to proceed at room temperature for 4 hours and then terminated by addition of 130 μl of 0.1 M glycine-sodium hydroxide buffer (pH 10.3), and the fluorescent intensity of the 4-methylumbelliferone produced was determined (Ex: 360 nm; Em: 450 nm). The amount of NGF was calculated based on a standard curve and expressed in terms of relative multiplicity in relation to the amount of NGF (control) produced and secreted by cells treated in the same manner without adding the test compound. […]

The test system of series [3] is diabetic neuropathy model. The experiment in a line: Hyperalgesia test (pressure-stimulant algesiometer, pain threshold of hind-limb) in STZ diabetic neuropathy model rats. Format: in vivo, SD rats. The settings on record: 10 mg/kg body weight/day orally for 1 month. On the procedure: A diabetic neuropathy model was made by injecting streptozotocin (STZ) into the tail vein of male 6-week-old SD rats in a dose of 70 mg/kg body weight. After 4 months of housing, 10 mg/kg body weight/day of compound (5) which was suspended in 0.5% (w/v) methylcellulose was orally administered for 1 month. After administration, a hvderalgesia test was conducted using a pressure-stimulant algesiometer (produced by Ugo Basil) to determine the pain threshold of hind-limb.

The test system of series [4] is diabetic neuropathy model. The experiment in a line: Sensory nerve conduction velocity in STZ diabetic neuropathy model rats. Type of series: in vivo, SD rats. Particulars: 10 mg/kg body weight/day orally for 4 months. On the procedure:
A diabetic neuropathy model was made by injecting streptozotocin (STZ) into the tail vein of male 6-week-old SD rats in a dose of 70 mg/kg body weight. After 4 moths of housing, 10 mg/kg body weight/day of compound (5) which was suspended in 0.5% (w/v) methylcellulose was orally administered for 4 months. After administration, the rats were anesthetized with pentobarbital and the body temperature of the rats were kept 37° C. using a hotplate heated and an electric lamp. Then, conduction velocities of motor nerves and sensory nerves were determined using an induction potential test device (Neuropack 2, produced by Nihon Kohden) in the following manner. Proximal or distal positions of the sural nerve of the rats were stimulated at, in principle, 0.8 mA and the potential was recorded at the plantar skin. The sensory nerve conduction velocity was calculated from the distance and latencies of the two different stimulating sites.

For series [5], the system named is BDNF. Put plainly: BDNF content in pons of STZ diabetic neuropathy model rats. Type of series: in vivo, SD rats. Particulars: 10 mg/kg body weight/day orally for 1 month. The procedure: (§1) A diabetic neuropathy model was made by injecting streptozotocin (STZ) into the tail vein of male 6-week-old SD rats in a dose of 70 mg/kg body weight. After 4 weeks, 0.1 to 3 mg/kg body weight of compound (5) was orally administered for 4 weeks, and each tissue was collected. The collected tissue was supplemented with 25 to 40 times of disruption buffer (0.1 M Tris-hydrochloride buffer, pH 7.6, containing 1 M sodium chloride, 2% BSA, 2 mM EDTA, 80 trypsin units/L of aprotinin and 0.02% sodium azide) in terms of the wet tissue weight, which was subjected to sonication. After 30 minutes of centrifugation at 15,000 rpm, the supernatant was used as the sample and the NGF and BDNF contents were determined in the same manner as in Experimental Example 1.
(§2) A diabetic neuropathy model was made by injecting streptozotocin (STZ) into the tail vein of male 6-week-old SD rats in a dose of 70 mg/kg body weight. […]
(§3) While, the pons were collected from brain stem to determine the contents of neurotrophic factors. The BDNF contents were determined in the similar manner as in Experimental Example 2. The NT-3 contents were determined in the similar manner as in Experimental Example 2 except that an anti-NT-3 antibody (Brain Res. 1994, 12, pp. 143-146; Clin Chim Acta 1994, 227, pp. 23-36) was used.

Series [6] deals with diabetic neuropathy model. The experiment in a line: Motor nerve conduction velocity in STZ diabetic neuropathy model rats. Format: in vivo, SD rats. Particulars: 10 mg/kg body weight/day orally for 4 months. The procedure: A diabetic neuropathy model was made by injecting streptozotocin (STZ) into the tail vein of male 6-week-old SD rats in a dose of 70 mg/kg body weight. After 4 moths of housing, 10 mg/kg body weight/day of compound (5) which was suspended in 0.5% (w/v) methylcellulose was orally administered for 4 months. After administration, the rats were anesthetized with pentobarbital and the body temperature of the rats were kept 37° C. using a hotplate heated and an electric lamp. Then, conduction velocities of motor nerves and sensory nerves were determined using an induction potential test device (Neuropack 2, produced by Nihon Kohden) in the following manner. Needle electrodes were placed at the thigh or the ankle of the rats. Then, the sciatic nerve or the tibial nerve was stimulated at, in principle, 1.6 mA and the action potential was recorded from the plantar muscle. The motor nerve conduction velocity was calculated from the distance and latencies of the two different stimulating sites.

The subject of series [7] is NT-3. The experiment in a line: NT-3 content in pons of STZ diabetic neuropathy model rats. Format: in vivo, SD rats. The settings on record: 10 mg/kg body weight/day orally for 1 month. On the procedure:
as §1, §2, §3

The subject of series [8] is NGF. The experiment in a line: NGF content in peripheral and brain tissues of STZ diabetic neuropathy model rats. Type of series: in vivo, SD rats. The procedure: (§4) The culture fluid obtained in each run of Reference Example 1A was recovered and assayed for the neurotrophin content therein. NGF was assayed by the enzyme immunoassay method described by Murase et al. in Biochemistry International, vol. 22, p. 807 (1990). Thus, an anti-NGF antibody (100 μg/ml) (antibody obtained by using mouse NGF as the antigen and immunizing New Zealand albino rabbits therewith) was distributed in 10-μl portions in the wells of 96-well round bottom plates and antibody adsorption was allowed to proceed by 2 hours standing at room temperature. After removing the antibody, each well was washed three times with a washing solution. A 10-μl portion of the above recovered culture fluid or standard NGF solution was placed in each well and the plates were allowed to stand at room temperature for 2.5 hours. After three times washings of each well, 20 μl of biotinylated anti-NGF antibody (35 ng/ml) was added thereto, followed by overnight standing at 4° C. […] After washing, 30 μl of 4-methylumbelliferyl-β-D-galactoside (produced by Sigma) (10 μg/μl) was added to the substrate, the reaction was allowed to proceed at room temperature for 4 hours and then terminated by addition of 130 μl of 0.1 M glycine-sodium hydroxide buffer (pH 10.3), and the fluorescent intensity of the 4-methylumbelliferone produced was determined (Ex: 360 nm; Em: 450 nm). The amount of NGF was calculated based on a standard curve and expressed in terms of relative multiplicity in relation to the amount of NGF (control) produced and secreted by cells treated in the same manner without adding the test compound. […]
(§5) A diabetic neuropathy model was made by injecting streptozotocin (STZ) into the tail vein of male 6-week-old SD rats in a dose of 70 mg/kg body weight. […] After 30 minutes of centrifugation at 15,000 rpm, the supernatant was used as the sample and the NGF and BDNF contents were determined in the same manner as in Experimental Example 1.

Series [9] relates to BDNF. Put plainly: BDNF content in peripheral and brain tissues of STZ diabetic neuropathy model rats. Type of series: in vivo, SD rats. On the procedure: as §4, §5
Where [10] appears, read: Mean ± SD (n = 5 to 8), **: p < 0.01 vs STZ group.
[11] abbreviates: pons, Mean ± SD (n = 10), **: p < 0.01 vs STZ group.
[12] abbreviates: 0.1 to 3 mg/kg body weight orally for 4 weeks, hippocampus, Mean ± SD (n = 8 to 9), *: p < 0.05 vs STZ group.
Where [13] appears, read: 0.1 to 3 mg/kg body weight orally for 4 weeks, sciatic nerve, Mean ± SD (n = 8 to 9), *: p < 0.05 vs STZ group.

As to `COc1ccccc1OCCCc1oc(-n2ccnc2C)nc1-c1ccc(Cl)cc1` [Compound (1), 4-(4-chlorophenyl)-5-[3-(2-methoxyphenoxy)propyl]-2-(2-methyl-1-imidazolyl)oxazole], the “BDNF production/secretion promoting activity” value in [1] is “excellent”. Also, in [2], the “NGF production/secretion promoting activity” value was “excellent”.
Regarding `Cc1ccccc1OCCCc1oc(-n2ccnc2C)nc1-c1ccc(Cl)cc1` [Compound (5), 4-(4-chlorophenyl)-2-(2-methyl-1-imidazolyl)-5-[3-(2-methylphenoxy)propyl]oxazole], the “Pain threshold (g)” value in series [3] (hind-limb, Mean ± SD (n = 10), **: p < 0.01 vs STZ group) was 109 ± 19** g. Moreover, in [3] (result in words), the “hyperalgesia, effect versus STZ group” value was “ameliorated”. Further, in series [4] (setting [10]), the “SNCV (m/s)” value is listed as 41.1 ± 7.9** m/s. Also, the “sensory nerve conduction velocity, effect versus STZ group” value in series [4] (result in words) is “recovered”. The “BDNF (pg/g tissue)” value in series [5] (setting [11]) is on record as 4151 ± 1161** pg/g tissue. The “amount of BDNF in pons, effect versus STZ group” value in series [5] (result in words) is on record as “increased”. The “BDNF production/secretion promoting activity” value in series [1] is “excellent”. The “MNCV (m/s)” value in [6] (setting [10]) is 54.9 ± 7.6** m/s. Besides, in series [6] (result in words), the “motor nerve conduction velocity, effect versus STZ group” value is listed as “recovered”. The “NT-3 (pg/g tissue)” value in series [7] (setting [11]) was 352 ± 118** pg/g tissue. In [7] (result in words), the “amount of NT-3 in pons, effect versus STZ group” value is “increased”. In addition, the “NGF (pg/g tissue) Hippocampus” value in [8] (setting [12]) is on record as 738 ± 105* pg/g tissue. The “NGF (pg/g tissue) Sciatic nerve” value in series [8] (setting [13]) is listed as 495 ± 143* pg/g tissue. For the same compound, the “NGF production/secretion promoting activity at the sciatic nerve and the hippocampus” value in [8] (oral, 4 weeks, result in words) is given as “excellent”. Besides, the “BDNF (ng/g tissue) Hippocampus” value in series [9] (setting [12]) is 3.5 ± 0.3* ng/g tissue. Also, the “BDNF (ng/g tissue) Sciatic nerve” value in series [9] (setting [13]) is 5.0 ± 0.6* ng/g tissue. The “BDNF production/secretion promoting activity at the sciatic nerve and the hippocampus” value in series [9] (oral, 4 weeks, result in words) is given as “excellent”. The “NGF production/secretion promoting activity” value in series [2] was “excellent”.
`Cc1ccccc1OCCCc1sc(-n2ccnc2C)nc1-c1ccc(Cl)cc1` [Example 96, 4-(4-chlorophenyl)-2-(2-methyl-1-imidazolyl)-5-[3-(2-methylphenoxy)propyl]thiazole] registered a melting point of 112 to 113 °C.
In the case of `Cc1nccn1-c1nc(-c2ccc(Cl)s2)c(CCCCO)o1` [Example 99, 4-(5-chloro-2-thienyl)-2-(2-methyl-1-imidazolyl)-5-oxazolebutanol], the melting point was 77 to 79 °C.
In turn, `Cc1nccn1-c1nc(-c2ccc(F)cc2)c(CCCCO)o1` [Example 102, 4-(4-fluorophenyl)-2-(2-methyl-1-imidazolyl)-5-oxazolebutanol] displayed a melting point of 97 to 98 °C.
`Cc1cccc(Cl)c1CCCOc1oc(-n2ccnc2C)nc1-c1ccc(Cl)cc1` [Example 109, 5-[3-(2-chloro-6-methylphenyl)propyloxy]-4-(4-chlorophenyl)-2-(2-methyl-1-imidazolyl)oxazole] displayed a melting point of 115 to 116 °C.
As to `Cc1cc(O)ccc1OCCCc1oc(-n2ccnc2C)nc1-c1ccc(Cl)cc1` [Example 113, 4-[3-[4-(4-chlorophenyl)-2-(2-methyl-1-imidazolyl)-5-oxazolyl]propyloxy]-3-methylphenol], the melting point fell in the range of 175 to 176 °C.
`COC(=O)CCc1oc(-n2ccnc2C)nc1-c1ccc(C(F)(F)F)cc1` [Example 116, methyl 2-(2-methyl-1-imidazolyl)-4-(4-trifluoromethylphenyl)-5-oxazolepropionate] yielded a melting point of 94 to 95 °C.
Take `COC(=O)CCc1oc(-n2ccnc2C)nc1-c1ccc(Cl)c(Cl)c1` [Example 117, methyl 4-(3,4-dichlorophenyl)-2-(2-methyl-1-imidazolyl)-5-oxazolepropionate]: the melting point lay in the range of 116 to 117 °C.
As to `Cc1nccn1-c1nc(-c2ccc(C(F)(F)F)cc2)c(CCCO)o1` [Example 118, 2-(2-methyl-1-imidazolyl)-4-(4-trifluoromethylphenyl)-5-oxazolepropanol], the melting point lay within 127 to 129 °C.
`Cc1nccn1-c1nc(-c2ccc(Cl)c(Cl)c2)c(CCCO)o1` [Example 119, 4-(3,4-dichlorophenyl)-2-(2-methyl-1-imidazolyl)-5-oxazolepropanol] returned a melting point of 140 to 141 °C.
